Test results: ChEMBL document CHEMBL1201862, “PubChem BioAssay data set” (2004)
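All cell lines were grown in 96-well plates and treated with compound for 48 hours. Abbreviation: GI50, concentration required for 50% inhibition of growth.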 Active and inactive are the calls of the source. Rule as the data show it: active = GI50 up to about 1.1 µM and inactive = higher.

How the values were obtained:
Test in all cases: growth of human tumour cells (NCI), 48 h
RXF 393 = system: RXF 393
SK-OV-3 = system: SK-OV-3
NCI-H460 = system: NCI-H460
SN12C = system: SN12C
KM12 = system: KM12
HT-29 = system: HT-29
KM-20L2 = system: KM-20L2
TK-10 = system: TK-10
COLO 205 = system: COLO 205
SNB-19 = system: SNB-19
SW-620 = system: SW-620
LOX IMVI = system: LOX IMVI
SK-MEL-2 = system: SK-MEL-2
HCT-116 = system: HCT-116
SF-539 = system: SF-539
786-0 = system: 786-0
PC-3 = system: PC-3
BT-549 = system: BT-549
MDA-N = system: MDA-N
T47D = system: T47D

Measured: GI50

O=C(O)c1ccc([I+]c2ccccc2)cc1
inactive: RXF 393 > 100 µM | SK-OV-3 > 100 µM | NCI-H460 > 100 µM | SN12C > 100 µM | KM12 > 100 µM | HT-29 > 100 µM | KM-20L2 > 100 µM | TK-10 > 100 µM | COLO 205 > 100 µM | SNB-19 > 100 µM | SW-620 > 100 µM | LOX IMVI > 100 µM | SK-MEL-2 > 100 µM | HCT-116 > 100 µM | SF-539 > 100 µM | 786-0 > 100 µM

CC(/C(=N/NC(=O)C(N)=O)c1c(Cl)ccc(Cl)c1O)C1(O)C(=O)Nc2ccccc21 (centres undefined)
inactive: RXF 393 55.3 µM | SK-OV-3 > 100 µM | NCI-H460 28.3 µM | SN12C 70.3 µM | KM12 30.4 µM | HT-29 39.5 µM | KM-20L2 56.2 µM | TK-10 46.9 µM | COLO 205 23.2 µM | SNB-19 72.4 µM | SW-620 41.7 µM | LOX IMVI 30.1 µM | SK-MEL-2 33.3 µM | HCT-116 41 µM | SF-539 32 µM | 786-0 57 µM

COc1cc(OC(=O)c2ccccc2)cc2c1C(=O)C=CC2=O
inactive: RXF 393 10.9 µM | SK-OV-3 20 µM | NCI-H460 34.2 µM | SN12C 19.5 µM | KM12 15.1 µM | HT-29 14.1 µM | KM-20L2 > 56.9 µM | TK-10 17.9 µM | COLO 205 16.2 µM | SNB-19 30.6 µM | PC-3 14 µM | BT-549 15.8 µM | MDA-N 6.44 µM | SW-620 8.79 µM | LOX IMVI 12.3 µM | SK-MEL-2 18.1 µM | HCT-116 6.35 µM | SF-539 20.1 µM | 786-0 8.39 µM | T47D 1.89 µM

O=C1C=CC(=O)c2cc(Sc3ccccc3)c(=O)c(Sc3ccccc3)cc21
inactive: RXF 393 14 µM | SK-OV-3 43.2 µM | NCI-H460 > 100 µM | SN12C > 100 µM | KM12 > 100 µM | HT-29 > 100 µM | KM-20L2 > 100 µM | TK-10 64.3 µM | COLO 205 73.3 µM | SNB-19 > 100 µM | SW-620 > 100 µM | LOX IMVI > 100 µM | SK-MEL-2 > 100 µM | HCT-116 32.6 µM | SF-539 > 100 µM | 786-0 88.5 µM

CCCCCC/C(CC(=O)CCC(=O)NCCc1ccccc1)=N\Nc1ccc([N+](=O)[O-])cc1[N+](=O)[O-]
inactive: RXF 393 > 100 µM | SK-OV-3 > 100 µM | NCI-H460 > 100 µM | SN12C 82 µM | KM12 67.8 µM | HT-29 > 100 µM | KM-20L2 > 100 µM | TK-10 > 100 µM | COLO 205 64.3 µM | SNB-19 > 100 µM | SW-620 68.1 µM | LOX IMVI 34.7 µM | SK-MEL-2 > 100 µM | HCT-116 36.7 µM | SF-539 > 100 µM | 786-0 > 100 µM
